According to PMC2796434 (Bioorganic & medicinal chemistry, 2008):

Molecular target: T1, GV sPLA2 (Homo sapiens, UniProt P39877)
T1 sequence (P39877 21-138): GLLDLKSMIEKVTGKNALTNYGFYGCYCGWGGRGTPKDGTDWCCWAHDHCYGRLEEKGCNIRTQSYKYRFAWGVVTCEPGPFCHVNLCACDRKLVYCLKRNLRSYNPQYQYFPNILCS
Assay: mixed-micelle radiolabelled phospholipid
Type: biochemical

GV sPLA2: 0.003 ± 0.0004 mole fraction (XI(50))
Structure (SMILES): CCCC[C@H](CCC(=O)O)NC(=O)CCCCCCc1ccccc1 [compound 42, (R)-4-(7-Phenylheptanamido)octanoic acid]
